These results are taken from patent publication US5849779A, “Pyrazole derivatives and their pharmaceutical use” (Japan Energy Corporation, priority 1996, dated 1998).

Data set [1] has as its system Human coronary artery smooth muscle cells. The experiment in a line: Inhibiting effect on PDGF-stimulated smooth muscle cell growth (3H-thymidine method). The data set is classed as cell-based. Particulars: PDGF-BB 20 ng/mL, 16 h. The method, then: Effect on PDGF-stimulated smooth muscle cell growth was estimated by the following method to verify inhibitory activity of the pyrazole derivative of the present invention against smooth muscle cell growth. (Test method)
Human coronary artery smooth muscle cells seeded on a 96-well plate (2×10^4 cell/well) were incubated in a complete medium consisting of a basal medium (SmGM-2: Iwaki Glass Co., Japan), FBS (5%), EGF (0.5 ng/mL), insulin (0.005 mg/mL), and basic-FGF (2 ng/mL) for 24 h until confluent. The medium was replaced by the basal medium followed by incubation for further 24 h to lead cells to GO stage.
The medium was replaced by a medium consisting of the basal medium and PDGF-BB (20 ng/mL) to induce PDGF-stimulated cell growth, and a DMSO solution of a test sample was added followed by incubation for 16 h. Then, inhibition of cell growth was estimated by a ^3 H-thymidine method as described in Example 22.
Tranilast was used as positive reference.

The next data set concerns BALB/c 3T3 cells. In words: Inhibiting effect on PDGF-stimulated cell growth (3H-thymidine uptake). The data set is classed as cell-based. Particulars: Mus musculus, BALB/c3T3, PDGF-AA or PDGF-BB 10 ng/mL, 16 h; for inhibition at 3 µM: concentration 3 μM. The method, then: Effect on PDGF-stimulated cell growth was estimated by the following method using fibroblasts, growth of which is induced by PDGF in the same manner of smooth muscle cells to verify inhibitory activity of the pyrazole derivative of the present invention against PDGF-stimulated cell growth.
BALB/c 3T3 cells seeded on a 96-well plate (3-5×10^3 cell/well) were incubated in a high glucose Dulbecco's modified Eagle's medium (DME medium) containing 10% fetal bovine sera (FBS) for 2-3 days until confluent. The medium was replaced by high glucose DME medium containing 0.5% platelet poor plasma (PPP) followed by incubation for further 24 h.
The medium was replaced by high glucose DME medium containing PDGF-AA or PDGF-BB (10 ng/mL) to induce PDGF-stimulated cell growth, and a DMSO solution of a test sample was added followed by incubation for 16 h. Then, ^3 H-thymidine (1 mCi/ml) was 20-fold diluted by Ca^2+ and Mg^2+ free phosphate-bufferized saline, and 0.02 mL of the resulted solution was added followed by incubation for further 4 h. Final concentration of DMSO was not more than 0.25%.
After ^3 H-thymidine in the medium was washed out, cells were treated with trypsin/EDTA and collected using a cell-harvester. Amount of ^3 H-thymidine taken in the cells was measured by a liquid scintillation counter. […] Growth inhibition was estimated by difference of the amount of ^3 H-thymidine taken between the test incubation and the reference incubation.

Data set [2] deals with smooth muscle cell. Particulars: as reported in literature; cited from earlier work.
Data set [3] concerns smooth muscle cell. Particulars: Atherosclerosis, 107, 179-185 (1994); cited from earlier work.
A further data set relates to hepatic function. Particulars: clinical use; cited from earlier work.
A further data set has as its system re-narrowing. Particulars: Rinsho Iyaku, 12, 65-85 (1996); cited from earlier work.

What is called IC50 is the concentration needed to halve the response being measured. Read a low IC50 as inhibition by little substance. By inhibition is commonly meant the share of the control response that was lost under treatment. Compound `CCCNC(=O)Nc1nn(Cc2ccccc2)cc1C(=O)OCC` [Example 1, N-propyl-N'-(1-benzyl-4-ethoxycarbonylpyrazol-3-yl)urea] showed an IC50 in data set [1] of 2300 nM. The compound further displayed an inhibition at 3 µM with BALB/c 3T3 cells of 84.5%.
In the case of `CCCCn1cc(C(=O)OCC)c(NC(=O)Nc2ccccc2)n1` [Example 2, N-phenyl-N'-(1-butyl-4-ethoxycarbonylpyrazol-3-yl)urea], the 50% inhibitory concentration (IC50) in data set [1] was found to be 3100 nM. 3 µM produced 81.9% inhibition in the data set on BALB/c 3T3 cells.
For `CCCCn1cc(C(=O)OCC)c(NC(=S)Nc2ccccc2)n1` [Example 3, N-phenyl-N'-(1-butyl-4-ethoxycarbonylpyrazol-3-yl)thiourea], in that order: 1500 nM and 89.5%.
`CCOC(=O)c1cnn(-c2ccccc2)c1NC(=O)Nc1ccccc1` [Example 6, N-phenyl-N'-(4-ethoxycarbonyl-1-phenylpyrazol-5-yl)urea] showed an inhibition at 3 µM with BALB/c 3T3 cells of 49.9%.
`CCCNC(=O)Nc1c(C(=O)OCC)cnn1-c1ccccc1` [Example 7, N-propyl-N'-(4-ethoxycarbonyl-1-phenylpyrazol-5-yl)urea] returned an inhibition at 3 µM in the data set with BALB/c 3T3 cells of 36.4%.
Compound `CCOC(=O)c1cn(Cc2ccccc2)nc1NC(=O)NC(C)C` [Example 8, N-isopropyl-N'-(1-benzyl-4-ethoxycarbonylpyrazol-3-yl)urea] had a 50% inhibitory concentration (IC50) in data set [1] of 1300 nM.
Take `CCCN(CCC)C(=O)Nc1nn(Cc2ccccc2)cc1C(=O)OCC` [Example 15, N, N-dipropyl-N'-(1-benzyl-4-ethoxycarbonylpyrazol-3-yl)urea]: in data set [1], 2200 nM corresponded to half-maximal inhibition (IC50).
`CCOC(=O)c1cn(Cc2ccccc2)nc1NC(=O)N(c1ccccc1)c1ccccc1` [Example 16, N, N-diphenyl-N'-(1-benzyl-4-ethoxycarbonylpyrazol-3-yl)urea] had a 50% inhibitory concentration (IC50) in data set [1] of 1100 nM.
`CCOC(=O)c1cn(Cc2ccccc2)nc1N(Cc1ccccc1)C(=O)Nc1ccccc1` [Example 18, N-phenyl-N'-benzyl-N'-(1-benzyl-4-ethoxycarbonylpyrazol-3-yl)urea]: the IC50 in data set [1] was determined as 3000 nM.
In the case of `COc1ccc(/C=C/C(=O)Nc2ccccc2C(=O)O)cc1OC` [tranilast, N-(3,4-dimethoxycinnamoyl) anthranilic acid, reference compound], the “inhibition of PDGF-stimulated smooth muscle cell growth” value in the data set on smooth muscle cell [2] is given as “reported to inhibit PDGF-stimulated smooth muscle cell growth”. Also, the “inhibition of growth of smooth muscle cell” value with smooth muscle cell [3] is “inhibit growth of smooth muscle cell”. The compound also displayed a concentration for half-maximal inhibition (IC50) in data set [1] of 5000 nM. In the data set with BALB/c 3T3 cells (concentration 10 μM), this compound returned an inhibition at 10 µM of 19.2%. Besides, in the data set with BALB/c 3T3 cells (concentration 30 μM), 30 µM produced 57.1% inhibition. Moreover, 100 µM produced 92.5% inhibition in the data set on BALB/c 3T3 cells (concentration 100 μM). For the same compound, in the data set with hepatic function, the “side effects on hepatic function” value is “often causes side effects on hepatic function”. Also, in the data set on re-narrowing, the “prevention of clinical re-narrowing after percutaneous transluminal angioplasty” value was “prevent clinical re-narrowing after percutaneous transluminal angioplasty”.
